In patent US20230381157A1, “RIFABUTIN FOR THE TREATMENT OF ACINETOBACTER BAUMANNII” (University of Southern California, priority 2018, published 2023):
Values after ≈ are worked out from the molar mass of the structure shown. “Also recorded” adds a separate entry of the source. Read-outs that look alike come from different tables or passages of the source.

Assays:
[1] = tested on: A. baumannii AB5075 transposon disruption mutants; assay: microbe, parasite or virus in culture; type: cell-based, Acinetobacter baumannii; conditions: for MIC: Acinetobacter baumannii
A. baumannii HUMC1 = type: in vivo, mouse

`CO[C@H]1/C=C/O[C@@]2(C)Oc3c(C)c(O)c4c(c3C2=O)C2=NC3(CCN(CC(C)C)CC3)NC2=C(NC(=O)/C(C)=C\C=C\[C@H](C)[C@H](O)[C@@H](C)[C@@H](O)[C@@H](C)[C@H](OC(C)=O)[C@@H]1C)C4=O` [rifabutin] was tested. Which “Rifabutin MIC” value ([1]; AB06392, disrupted gene hisP, RPMI, listed as RBT) did it give?
Its value is 0.05 µg/mL.

What about the Rifabutin MIC ([1]; AB06694, ABUW_2539 (IS4 family transposase), MHII) of the same compound?
Its Rifabutin MIC is 3.13 µg/mL.

What about the Rifabutin MIC ([1]; AB06694, ABUW_2539 (IS4 family transposase), RPMI) of the same compound?
Its Rifabutin MIC is 0.05 µg/mL.

And the Rifabutin MIC ([1]; AB06695, ABUW_2539, MHII)?
The Rifabutin MIC was 3.13 µg/mL.

And the Rifabutin MIC ([1]; AB06695, ABUW_2539, RPMI)?
Its Rifabutin MIC is 0.05 µg/mL.

What about the Rifabutin MIC ([1]; AB06731, ABUW_2557 (hypothetical protein(epoxyqueuosine reductase QueH)), MHII) of the same compound?
The Rifabutin MIC was 3.13 µg/mL.

And the Rifabutin MIC ([1]; AB06731, ABUW_2557 (hypothetical protein(epoxyqueuosine reductase QueH)), RPMI)?
Its Rifabutin MIC is 0.05 µg/mL.

What about the Rifabutin MIC ([1]; AB06732, ABUW_2557, MHII) of the same compound?
The Rifabutin MIC was 6.25 µg/mL.

And the Rifabutin MIC ([1]; AB06732, ABUW_2557, RPMI)?
The Rifabutin MIC was 0.05 µg/mL.

And the Rifabutin MIC ([1]; AB06821, ABUW_2586 (allophanate hydrolase), MHII)?
Its Rifabutin MIC is 3.13 µg/mL.

What about the Rifabutin MIC ([1]; AB06821, ABUW_2586 (allophanate hydrolase), RPMI) of the same compound?
The Rifabutin MIC was 0.05 µg/mL.

What about the Rifabutin MIC ([1]; AB06822, ABUW_2586, MHII) of the same compound?
The Rifabutin MIC was 3.13 µg/mL.

What about the Rifabutin MIC ([1]; AB06822, ABUW_2586, RPMI) of the same compound?
The Rifabutin MIC was 0.05 µg/mL.

And the “Rifabutin MIC” value ([1]; AB07354, disrupted gene aroP, RPMI, listed as RBT)?
The value was 0.05 µg/mL.

What about the “Rifabutin MIC” value ([1]; AB07356, disrupted gene aroP, RPMI, listed as RBT) of the same compound?
The value was 0.05 µg/mL.

What about the Rifabutin MIC ([1]; AB07566, ABUW_2893 (hypothetical protein), MHII) of the same compound?
The Rifabutin MIC was 0.78 µg/mL.

And the Rifabutin MIC ([1]; AB07566, ABUW_2893 (hypothetical protein), RPMI)?
The Rifabutin MIC was 0.05 µg/mL.

And the Rifabutin MIC ([1]; AB07567, ABUW_2893, MHII)?
The Rifabutin MIC was 0.78 µg/mL.

And the Rifabutin MIC ([1]; AB07567, ABUW_2893, RPMI)?
Its Rifabutin MIC is 0.05 µg/mL.

And the “Rifabutin MIC” value ([1]; AB07813, disrupted gene mtr, RPMI, listed as RBT)?
Its value is 0.05 µg/mL.

What about the Rifabutin MIC ([1]; AB09112, ABUW_3470 (Zn-dependent hydrolase), MHII) of the same compound?
Its Rifabutin MIC is 0.78 µg/mL.

What about the Rifabutin MIC ([1]; AB09112, ABUW_3470 (Zn-dependent hydrolase), RPMI) of the same compound?
The Rifabutin MIC was 0.05 µg/mL.

What about the Rifabutin MIC ([1]; AB09114, ABUW_3470, MHII) of the same compound?
The Rifabutin MIC was 0.78 µg/mL.

And the Rifabutin MIC ([1]; AB09114, ABUW_3470, RPMI)?
Its Rifabutin MIC is 0.05 µg/mL.

What about the “Rifabutin MIC” value ([1]; AB09979, disrupted gene aroP, RPMI, listed as RBT) of the same compound?
Its value is 0.05 µg/mL.

What about the “Rifabutin MIC” value ([1]; AB09980, disrupted gene tryP, RPMI, listed as RBT) of the same compound?
The value was 0.05 µg/mL.

And the “Rifabutin MIC” value ([1]; AB09982, disrupted gene tryP, RPMI, listed as RBT)?
The value was 0.05 µg/mL.

What about the Rifabutin MIC ([1]; AB10057, ABUW_3811 (DID), MHII) of the same compound?
Its Rifabutin MIC is 3.13 µg/mL.

And the Rifabutin MIC ([1]; AB10057, ABUW_3811 (DID), RPMI)?
Its Rifabutin MIC is 0.05 µg/mL.

What about the Rifabutin MIC ([1]; AB10058, ABUW_3811, MHII) of the same compound?
Its Rifabutin MIC is 3.13 µg/mL.

And the Rifabutin MIC ([1]; AB10058, ABUW_3811, RPMI)?
Its Rifabutin MIC is 0.05 µg/mL.

And the MIC ([1]; read-out: Rifabutin MIC, AB00188, disrupted gene aroP, MHII)?
Its MIC is 3.13 µg/mL (≈ 3.7 µM).

And the MIC ([1]; read-out: Rifabutin MIC, AB00188, disrupted gene aroP, RPMI)?
Its MIC is < 0.05 µg/mL.

What about the MIC ([1]; read-out: Rifabutin MIC, AB00190, disrupted gene aroP, MHII) of the same compound?
Its MIC is 6.25 µg/mL (≈ 7.38 µM).

And the MIC ([1]; read-out: Rifabutin MIC, AB00190, disrupted gene aroP, RPMI)?
The MIC was < 0.05 µg/mL.

And the MIC ([1]; read-out: Rifabutin MIC, AB00215, disrupted gene tryP, MHII)?
Its MIC is 6.25 µg/mL (≈ 7.38 µM).

And the MIC ([1]; read-out: Rifabutin MIC, AB00215, disrupted gene tryP, RPMI)?
The MIC was < 0.05 µg/mL.

What about the MIC ([1]; read-out: Rifabutin MIC, AB00216, disrupted gene tryP, MHII) of the same compound?
The MIC was 1.56 µg/mL (≈ 1.84 µM).

And the MIC ([1]; read-out: Rifabutin MIC, AB00216, disrupted gene tryP, RPMI)?
The MIC was < 0.05 µg/mL.

What about the MIC ([1]; read-out: Rifabutin MIC, AB02204, disrupted gene aroP, MHII) of the same compound?
Its MIC is 6.25 µg/mL (≈ 7.38 µM).

And the MIC ([1]; read-out: Rifabutin MIC, AB02204, disrupted gene aroP, RPMI)?
Its MIC is < 0.05 µg/mL.

What about the MIC ([1]; read-out: Rifabutin MIC, AB02205, disrupted gene aroP, MHII) of the same compound?
Its MIC is 3.13 µg/mL (≈ 3.7 µM).

What about the MIC ([1]; read-out: Rifabutin MIC, AB02205, disrupted gene aroP, RPMI) of the same compound?
The MIC was < 0.05 µg/mL.

What about the MIC ([1]; read-out: Rifabutin MIC, AB03015, disrupted gene aroP, MHII) of the same compound?
Its MIC is 6.25 µg/mL (≈ 7.38 µM).

What about the MIC ([1]; read-out: Rifabutin MIC, AB03015, disrupted gene aroP, RPMI) of the same compound?
The MIC was < 0.05 µg/mL.

What about the MIC ([1]; read-out: Rifabutin MIC, AB03608, disrupted gene hisJ, MHII) of the same compound?
The MIC was 3.13 µg/mL (≈ 3.7 µM).

What about the MIC ([1]; read-out: Rifabutin MIC, AB03608, disrupted gene hisJ, RPMI) of the same compound?
The MIC was < 0.05 µg/mL.

What about the MIC ([1]; read-out: Rifabutin MIC, AB03612, disrupted gene hisM, MHII) of the same compound?
The MIC was 3.13 µg/mL (≈ 3.7 µM).

What about the MIC ([1]; read-out: Rifabutin MIC, AB03612, disrupted gene hisM, RPMI) of the same compound?
The MIC was < 0.05 µg/mL.

And the MIC ([1]; read-out: Rifabutin MIC, AB03616, disrupted gene hisM, MHII)?
The MIC was 6.25 µg/mL (≈ 7.38 µM).

And the MIC ([1]; read-out: Rifabutin MIC, AB03616, disrupted gene hisM, RPMI)?
The MIC was < 0.05 µg/mL.

What about the MIC ([1]; read-out: Rifabutin MIC, AB03618, disrupted gene hisM, MHII) of the same compound?
The MIC was 6.25 µg/mL (≈ 7.38 µM).

And the MIC ([1]; read-out: Rifabutin MIC, AB03618, disrupted gene hisM, RPMI)?
Its MIC is < 0.05 µg/mL.

What about the MIC ([1]; read-out: Rifabutin MIC, AB5075-UW (parent strain), MHII) of the same compound?
Its MIC is 6.25 µg/mL (≈ 7.38 µM).

What about the MIC ([1]; read-out: Rifabutin MIC, AB5075-UW (parent strain), RPMI) of the same compound?
The MIC was < 0.05 µg/mL.

What about the MIC ([1]; read-out: Rifabutin MIC, AB06105, disrupted gene aroP, MHII) of the same compound?
Its MIC is 3.13 µg/mL (≈ 3.7 µM).

And the MIC ([1]; read-out: Rifabutin MIC, AB06105, disrupted gene aroP, RPMI)?
Its MIC is < 0.05 µg/mL.

And the MIC ([1]; read-out: Rifabutin MIC, AB06383, disrupted gene hisJ, MHII)?
The MIC was 6.25 µg/mL (≈ 7.38 µM).

And the MIC ([1]; read-out: Rifabutin MIC, AB06383, disrupted gene hisJ, RPMI)?
The MIC was < 0.05 µg/mL.

What about the MIC ([1]; read-out: Rifabutin MIC, AB06386, disrupted gene hisP, MHII) of the same compound?
Its MIC is 0.78 µg/mL (≈ 0.921 µM).

And the MIC ([1]; read-out: Rifabutin MIC, AB06386, disrupted gene hisP, RPMI)?
Its MIC is < 0.05 µg/mL.

And the MIC ([1]; read-out: Rifabutin MIC, AB06392, disrupted gene hisP, MHII)?
The MIC was 0.78 µg/mL (≈ 0.921 µM).

And the MIC ([1]; read-out: Rifabutin MIC, AB06392, disrupted gene hisP, RPMI)?
Its MIC is < 0.05 µg/mL.

And the MIC ([1]; read-out: Rifabutin MIC, AB07354, disrupted gene aroP, MHII)?
The MIC was 6.25 µg/mL (≈ 7.38 µM).

And the MIC ([1]; read-out: Rifabutin MIC, AB07354, disrupted gene aroP, RPMI)?
The MIC was < 0.05 µg/mL.

And the MIC ([1]; read-out: Rifabutin MIC, AB07356, disrupted gene aroP, MHII)?
Its MIC is 1.56 µg/mL (≈ 1.84 µM).

And the MIC ([1]; read-out: Rifabutin MIC, AB07356, disrupted gene aroP, RPMI)?
The MIC was < 0.05 µg/mL.

And the MIC ([1]; read-out: Rifabutin MIC, AB07813, disrupted gene mtr, MHII)?
Its MIC is 25 µg/mL (≈ 29.5 µM).

What about the MIC ([1]; read-out: Rifabutin MIC, AB07813, disrupted gene mtr, RPMI) of the same compound?
The MIC was < 0.05 µg/mL.

What about the MIC ([1]; read-out: Rifabutin MIC, AB09979, disrupted gene aroP, MHII) of the same compound?
Its MIC is 0.78 µg/mL (≈ 0.921 µM).

And the MIC ([1]; read-out: Rifabutin MIC, AB09979, disrupted gene aroP, RPMI)?
The MIC was < 0.05 µg/mL.

What about the MIC ([1]; read-out: Rifabutin MIC, AB09980, disrupted gene tryP, MHII) of the same compound?
Its MIC is 3.13 µg/mL (≈ 3.7 µM).

And the MIC ([1]; read-out: Rifabutin MIC, AB09980, disrupted gene tryP, RPMI)?
Its MIC is < 0.05 µg/mL.

And the MIC ([1]; read-out: Rifabutin MIC, AB09982, disrupted gene tryP, MHII)?
The MIC was 6.25 µg/mL (≈ 7.38 µM).

What about the MIC ([1]; read-out: Rifabutin MIC, AB09982, disrupted gene tryP, RPMI) of the same compound?
The MIC was < 0.05 µg/mL.

And the survival (A. baumannii HUMC1; IV infection, 10 mg/kg/day for 3 days, oral gavage, 10 mg/kg/day)?
Its survival is “improved survival”.

What about the CFUs in blood (A. baumannii HUMC1; IV infection, 10 mg/kg/day for 3 days, oral gavage, at 1 hr) of the same compound?
Its CFUs in blood is “significantly lower CFUs in the blood”.

What about the CFUs in blood (A. baumannii HUMC1; IV infection, 10 mg/kg/day for 3 days, oral gavage, at 24 hrs, 10 mg/kg/day) of the same compound?
The CFUs in blood was “significantly lower CFUs in the lung”.

What about the CFUs in blood (A. baumannii HUMC1; IV infection, 10 mg/kg/day for 3 days, oral gavage, at 24 hrs, listed as RBT, 10 mg/kg/day) of the same compound?
Its CFUs in blood is “significantly lower CFUs in the blood; also recorded: significantly reduced CFUs”.

What about the survival (A. baumannii HUMC1; IV infection, 10 mg/kg/day for 3 days, oral gavage, listed as RBT, 10 mg/kg/day) of the same compound?
Its survival is “significant improvement in survival; also recorded: significantly improved survival”.

What about the “fully protective at fold lower dose than RIF” value (A. baumannii HUMC1; IV infection, RBT 0.1 or 0.3, RIF 10 or 30 mg/kg/daily for 3 days, printed 100X / 100×) of the same compound?
The value was 100.

What about the survival (A. baumannii HUMC1; bacteremia model, 10 mg/kg for 3 days, 2 days post infection, PBS/control 0%) of the same compound?
The survival was “about 100%”.

And the protection (A. baumannii HUMC1; murine bacteremia, 0.1 mg/kg)?
The protection was “fully protective”.
